One data set has as its system PC-3 xenograft. Nature of the data set: Antitumor activity in PC-3 xenograft. The format is in vivo, Balb/c mice. To be noted: 15 mg/kg/d for 4 days. The procedure: PC-3 tumor cells (2×10^6 cells) were suspended in saline and injected S.C. in both flanks of recipient mice (n=15). Tumor size was measured every other day and volume calculated as V=π/6*(length)x(width)^2 (75). […] Tumor growth and body weight was monitored every other day for the remainder of the study.

For a further data set, the system named is K562/Dox. The experiment in a line: Cell viability MTT assay, 96 h. The format is cell-based. The note with it: Homo sapiens, doxorubicin-resistant. As to the method:
(§1) Cells were seeded in 96-well plates and incubated with different concentrations of compound 13, 68 or other anticancer drugs for 96 h. Cell viability was quantitated by MTT assay. […] Table 4 is a comparison of the IC50 of compounds 13, 68 and other anticancer drugs in the K562 and doxorubicin-resistant K562/DOX cell lines.

Another data set has as its system K562. Nature of the data set: Cell viability MTT assay, 96 h. In kind it is cell-based. To be noted: Homo sapiens. The procedure: as §1
Background: Formazan colour is commonly taken as a measure of viable cells.

A further data set relates to MCF-7. To be noted: MCF-7 cells, literature value (Rose 1995); cited from earlier work.
For another data set, the system named is HT-29. The note with it: HT-29 cells, literature value (Rose 1995); cited from earlier work.
The test system of a further data set is HEK293-482R2. Nature of the data set: Growth inhibition assay (96 h). The format is cell-based, human. To be noted: HEK293-482R2, BCRP over-expressed, 96 h.
The next data set deals with HEK293-pcDNA3.1. Nature of the data set: Growth inhibition assay (96 h). In kind it is cell-based, human. To be noted: HEK293-pcDNA3.1 (control for MRP). The source says: (§2) MTT (3-(4,5-dimethylthiazol-2-yl)-2,5-diphenyltetrazolium bromide) assay was also used for the leukemia cell lines. […] Cells were stained with SRB solution or MTT solution.
In a further data set the test system is HEK293-pcDNA3-10. Nature of the data set: Growth inhibition assay (96 h). To be noted: HEK293-pcDNA3-10 (control for BCRP). The format is cell-based, human.
Source text: as §2

The test system of a further data set is HEK293-MRP1. Nature of the data set: Growth inhibition assay (96 h). In kind it is cell-based, human. The note with it: HEK293-MRP1, MRP1 over-expressed, 96 h.
Another data set deals with HEK293-MRP2. The experiment in a line: Growth inhibition assay (96 h). In kind it is cell-based, human. The note with it: HEK293-MRP2, MRP2 over-expressed, 96 h.

Usually IC50 stands for the concentration needed to halve the response being measured.

In the case of `CC(=O)O[C@H]1C(=O)[C@@]2(C)[C@H]([C@H](OC(=O)c3ccccc3)[C@]3(O)C[C@H](OC(=O)[C@H](O)[C@@H](NC(=O)c4ccccc4)c4ccccc4)C(C)=C1C3(C)C)[C@]1(OC(C)=O)CO[C@@H]1C[C@@H]2O` [Taxol], the PC-3 xenograft growth result with PC-3 xenograft is given as “potently suppressed”. Further, the body weight result with PC-3 xenograft was “significant decreases in body weight”. The half-inhibitory concentration (IC50) with K562/Dox was 1480 ± 480 nM; in the data set with K562 it was 12.2 ± 0.2 nM; in the data set on MCF-7, approximately 2.5 nM; in the data set with HT-29, approximately 2.5 nM.

As to `CCc1c2c(nc3ccc(O)cc13)-c1cc3c(c(=O)n1C2)COC(=O)[C@]3(O)CC` [SN-38], the IC50 is 94.3 ± 20 nM in the data set on HEK293-482R2; 8.4 ± 1 nM in the data set on HEK293-pcDNA3.1; 2.9 ± 0.3 nM in the data set on HEK293-pcDNA3-10; 17.7 ± 1 nM in the data set with HEK293-MRP1; 12.4 ± 1 nM with HEK293-MRP2.

The values are drawn from patent US20120022121A1, “INDOLES, DERIVATIVES AND ANALOGS THEREOF AND USES THEREFOR” (priority 2007, published 2012).
